Measurements as given in patent publication US20230382894A1, “CCR4 ANTAGONISTS” (CHEMOCENTRYX, INC., priority 2022, published 2023).

Legend:
[1] = target: T1, CCR4 (Homo sapiens, UniProt P51679); assay: CEM cell chemotaxis (migration) assay to CCL22 (MDC) in 100% Fetal Bovine Serum (FBS); type: cell-based; settings: CEM cells in 100% FBS with 1% HEPEs; recombinant human CCL22 0.1 nM; 37° C. 60 minutes
T1 construct: CEM Cells Endogenous Express CCR4; endogenous in cells; host or cells: CEM cells
T1 sequence (P51679 1-360): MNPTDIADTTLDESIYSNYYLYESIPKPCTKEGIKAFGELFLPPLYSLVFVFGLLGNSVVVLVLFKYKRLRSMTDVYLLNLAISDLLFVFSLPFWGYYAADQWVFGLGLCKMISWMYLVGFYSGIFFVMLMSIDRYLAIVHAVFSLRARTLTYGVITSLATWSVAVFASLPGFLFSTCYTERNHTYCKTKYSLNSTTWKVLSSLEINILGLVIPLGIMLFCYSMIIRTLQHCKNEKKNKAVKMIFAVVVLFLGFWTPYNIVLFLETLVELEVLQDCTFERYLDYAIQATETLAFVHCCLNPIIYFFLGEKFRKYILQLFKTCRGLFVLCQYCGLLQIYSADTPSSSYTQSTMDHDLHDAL
In short: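 Endogenously CCR4-expressing CEM cells in 100% FBS with 1% HEPES were preincubated with serially diluted compound (top final 10 μM) and allowed to migrate through 5 μm polycarbonate membranes toward 0.1 nM human CCL22 (EC50) for 60 min at 37 °C. Migrated cells were quantified by CyQUANT fluorescence.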

[2] = target: T1, CCR4; assay: CEM cell chemotaxis (migration) assay to CCL22 (MDC) in HBSS buffer with 0.1% BSA; type: cell-based; settings: CEM cells in HBSS with 0.1% BSA; recombinant human CCL22 0.1 nM; 37° C. 60 minutes
Source text: CEM Cells Endogenous Express CCR4
A chemotaxis assay can be used to determine the efficacy of potential receptor antagonists at blocking the migration mediated through chemokine receptors, such as CCR4. This assay is routinely performed using the ChemoTX® microchamber system with a 5 μm pore-sized polycarbonate membrane.
HBSS: CEM Cells are collected by centrifugation at 400×g at room temperature, then suspended at 5 million/ml in Hanks' Balanced Salt Solution (HBSS) buffer with 0.1% BSA. The compound being tested is serially diluted from a maximum final concentration of 10 μM (or an equivalent volume of its solvent (DMSO)) and is then added to the cell/buffer mixture. Separately, recombinant human CCL22 (MDC) at its EC50 concentration (0.1 nM) is placed in the lower wells of the ChemoTX® plate. The 5-μm (pore size) polycarbonate membrane was placed onto the plate, and 20 μL of the cell/compound mixture is transferred onto each well of the membrane. The plates are incubated at 37° C. for 60 minutes, after which the polycarbonate membranes are removed and 5 μl of the DNA-intercalating dye CyQUANT (Invitrogen, Carlsbad, CA) is added to the lower wells. The amount of fluorescence, corresponding to the number of migrated cells, is measured using a Spectrafluor Plus plate reader (TECAN, San Jose, CA).

| Compound | IC50 [1] | IC50 [2] |
| --- | --- | --- |
| C[C@@H](Nc1nc(N2CCC(CO)(NC(=O)[C@H]3CCCN3)CC2)ncc1Cl)c1ccc(Cl)cc1Cl [Example 1.003] | < 100 nM | < 100 nM |
| C[C@@H](Nc1nc(N2CCN(C(=O)[C@H]3CCCN3)CC2)ncc1Cl)c1ccc(Cl)cc1F [Example 1.004] | < 100 nM | < 100 nM |
| CNC1CCN(C(=O)N2CCN(c3ncc(Cl)c(N[C@H](C)c4ccc(Cl)cc4Cl)n3)CC2)C1 (stereo partly shown) [Example 1.005] | < 100 nM | < 100 nM |
| C[C@@H](Nc1ncc(C(F)(F)F)c(N2CCN(C(=O)[C@H]3CCCN3)CC2)n1)c1ccc(Cl)cc1Cl [Example 1.006] | < 100 nM | < 100 nM |
| C[C@@H](Nc1nc(N2CCN(C(=O)[C@H]3CCCN3)CC2)ncc1C(F)(F)F)c1ccc(Cl)cc1Cl [Example 1.007] | < 100 nM | < 100 nM |
| C[C@@H](Nc1nc(N2CCC(N(C)C(=O)[C@H]3CCCN3)CC2)ncc1Cl)c1ccc(Cl)cc1Cl [Example 1.008] | < 100 nM | < 100 nM |
| C[C@@H](Nc1nc(N2CCC(NC(=O)C3CCN(C)C3)CC2)ncc1Cl)c1ccc(Cl)cc1Cl (stereo partly shown) [Example 1.009] | < 100 nM | < 100 nM |
| C[C@@H](Nc1nc(N2CCN(C(=O)CCN(C)C)CC2)ncc1Cl)c1ccc(Cl)cc1Cl [Example 1.010] | < 100 nM | < 100 nM |
| C[C@@H](Nc1nc(N2CCN(C(=O)[C@H]3CCCN3)[C@@H](C)C2)ncc1Cl)c1ccc(Cl)cc1Cl [Example 1.011] | < 100 nM | < 100 nM |
| C[C@@H](Nc1nc(N2CC[C@H](NC(=O)[C@H]3CCCN3)[C@@H](O)C2)ncc1Cl)c1ccc(Cl)cc1Cl [Example 1.012] | < 100 nM | < 100 nM |
| C[C@@H](Nc1nc(N2CC[C@@H](NC(=O)[C@H]3CCCN3)[C@H](O)C2)ncc1Cl)c1ccc(Cl)cc1Cl [Example 1.013] | < 100 nM | < 100 nM |
| C[C@@H](Nc1nc(N2CC[C@H](NC(=O)[C@H]3CCCN3)[C@H](O)C2)ncc1Cl)c1ccc(Cl)cc1Cl [Example 1.014] | < 100 nM | < 100 nM |
| C[C@@H](Nc1nc(N2CC[C@@H](NC(=O)[C@H]3CCCN3)C2)ncc1Cl)c1ccc(Cl)cc1Cl [Example 1.015] | < 100 nM | < 100 nM |
| C[C@@H](Nc1nc(N2CCN(S(=O)(=O)CCN(C)C)CC2)ncc1Cl)c1ccc(Cl)cc1Cl [Example 1.016] | 100 to 1000 nM | < 100 nM |
| C[C@@H]1CN(c2ncc(Cl)c(N[C@H](C)c3ccc(Cl)cc3Cl)n2)[C@@H](C)CN1C1CCCN(CCC(=O)O)C1 (stereo partly shown) [Example 1.017] | < 100 nM | < 100 nM |
| C[C@@H]1CN(c2ncc(Cl)c(N[C@H](C)c3ccc(Cl)cc3Cl)n2)CCN1C(=O)c1c[nH]c(=O)n(C)c1=O [Example 1.018] | > 1000 nM | > 1000 nM |
| C[C@@H]1CN(c2ncc(Cl)c(N[C@H](C)c3ccc(Cl)cc3Cl)n2)[C@@H](C)CN1C(=O)[C@H]1CCCN1CC(=O)O [Example 1.019] | 100 to 1000 nM | 100 to 1000 nM |
| C[C@@H](Nc1nc(C2=CCN(C(=O)CN(C)C)CC2)ncc1Cl)c1ccc(Cl)cc1Cl [Example 1.020] | < 100 nM | < 100 nM |
| C[C@@H](Nc1nc(N2CCC(C3CNC3)CC2)ncc1Cl)c1ccc(Cl)cc1Cl [Example 1.021] | < 100 nM | < 100 nM |
| C[C@@H](Nc1nc(N2CCN(C(=O)C3CCN(C)C3)CC2)ncc1Cl)c1ccc(Cl)cc1Cl (stereo partly shown) [Example 1.022] | < 100 nM | < 100 nM |
| C[C@@H](Nc1nc(N2CCN(C(=O)[C@H]3C[C@H](O)CN3)CC2)ncc1Cl)c1ccc(Cl)cc1Cl [Example 1.023] | < 100 nM | < 100 nM |
| C[C@@H](Nc1nc(N2CCN(C(=O)[C@H]3CCCN3C)CC2)ncc1Cl)c1ccc(Cl)cc1Cl [Example 1.024] | < 100 nM | < 100 nM |
| C[C@@H](Nc1nc(N2CCC(C(=O)N(C)CCN(C)C)CC2)ncc1Cl)c1ccc(Cl)cc1Cl [Example 1.025] | < 100 nM | < 100 nM |
| C[C@@H](Nc1nc(N2CCC(C(=O)NCCN(C)C)CC2)ncc1Cl)c1ccc(Cl)cc1Cl [Example 1.026] | < 100 nM | < 100 nM |
| C[C@@H](Nc1nc(C2=CCN(C(=O)[C@H]3CCCN3)CC2)ncc1Cl)c1ccc(Cl)cc1Cl [Example 1.027] | < 100 nM | < 100 nM |

| Compound | IC50 [1] | IC50 [2] |
| --- | --- | --- |
| C[C@@H](Nc1nc(N2CC[C@@H](NC(=O)[C@H]3CCCN3)[C@@H](O)C2)ncc1Cl)c1ccc(Cl)cc1Cl [Example 1.028] | < 100 nM | < 100 nM |
| C[C@@H](Nc1nc(N2CC[C@H](NC(=O)[C@H]3CCCN3)C2)ncc1Cl)c1ccc(Cl)cc1Cl [Example 1.029] | < 100 nM | < 100 nM |
| C[C@@H](Nc1nc(N2CCN(C(=O)[C@H]3CCCN3)C(C)(C)C2)ncc1Cl)c1ccc(Cl)cc1Cl [Example 1.030] | 100 to 1000 nM | > 1000 nM |
| C[C@@H](Nc1nc(N2CC3CC2CN3C(=O)[C@H]2CCCN2)ncc1Cl)c1ccc(Cl)cc1Cl (stereo partly shown) [Example 1.031] | 100 to 1000 nM | 100 to 1000 nM |
| C[C@@H](Nc1nc(N2CCN(C(=O)C[C@H]3CCCN3)CC2)ncc1Cl)c1ccc(Cl)cc1Cl [Example 1.032] | < 100 nM | < 100 nM |
| C[C@@H](Nc1nc(N2CCN(C(=O)[C@H]3CCN3)CC2)ncc1Cl)c1ccc(Cl)cc1Cl [Example 1.033] | < 100 nM | < 100 nM |
| C[C@@H]1CN(c2ncc(Cl)c(N[C@H](C)c3ccc(Cl)cc3Cl)n2)[C@@H](C)CN1C(=O)[C@H]1CCCN1 [Example 1.034] | < 100 nM | < 100 nM |
| C[C@@H](Nc1nc(N2CCC(C(=O)NC[C@H]3CCC(=O)N3)CC2)ncc1Cl)c1ccc(Cl)cc1Cl [Example 1.235] | > 1000 nM |  |
| C[C@@H](Nc1nc(N2CCN(C(=O)[C@H]3CCN(C)C3)CC2)ncc1C(N)=O)c1ccc(Cl)cc1Cl [Example 1.236] | < 100 nM |  |
| CC(=O)N1CCC[C@@H]1C(=O)N1CCN(c2ncc(Cl)c(N[C@H](C)c3ccc(Cl)cc3Cl)n2)CC1 [Example 1.237] | 100 to 1000 nM |  |
| C[C@@H](Nc1nc(N2CCN(C(=O)[C@H]3CCCC(=O)N3)CC2)ncc1Cl)c1ccc(Cl)cc1Cl [Example 1.238] | < 100 nM |  |
| C[C@@H](Nc1nc(N2CCN(C(=O)[C@H]3CCC(=O)N3C)CC2)ncc1Cl)c1ccc(Cl)cc1Cl [Example 1.239] | < 100 nM |  |
| C[C@@H](Nc1nc(N2CCN(C(=O)C3CCCC(=O)N3)CC2)ncc1Cl)c1ccc(Cl)cc1Cl (stereo partly shown) [Example 1.240] | < 100 nM |  |
| C[C@@H](Nc1nc(N2CCC(OC3CCN(C)C3)CC2)ncc1Cl)c1ccc(Cl)cc1Cl (stereo partly shown) [Example 1.241] | < 100 nM |  |
| CO[C@H]1CN(c2ncc(Cl)c(N[C@H](C)c3ccc(Cl)cc3Cl)n2)CC[C@@H]1NC(=O)[C@H]1CCCN1 [Example 1.242] | < 100 nM |  |
| C[C@@H](Nc1nc(N2CCN(C(=O)[C@H]3CCN(C)C3)CC2)ncc1C#N)c1ccc(Cl)cc1Cl [Example 1.243] | < 100 nM |  |
| C[C@@H](Nc1nc(N2CCN(C(=O)[C@@]3(C)CCC(=O)N3)CC2)ncc1Cl)c1ccc(Cl)cc1Cl [Example 1.244] | > 1000 nM |  |
| C[C@@H](Nc1nc(N2CC[C@H](NC(=O)CCN(C)C)[C@@H](O)C2)ncc1Cl)c1ccc(Cl)cc1Cl [Example 1.245] | < 100 nM |  |
| C[C@@H](Nc1nc(N2CC[C@H](NC(=O)[C@@]3(C)CCCN3)[C@@H](O)C2)ncc1Cl)c1ccc(Cl)cc1Cl [Example 1.246] | 100 to 1000 nM |  |
| C[C@@H]1CC[C@H](C(=O)N2CCN(c3ncc(Cl)c(N[C@H](C)c4ccc(Cl)cc4Cl)n3)CC2)N1 [Example 1.247] | < 100 nM |  |
| C[C@@H]1CC[C@H](C(=O)N[C@H]2CCN(c3ncc(Cl)c(N[C@H](C)c4ccc(Cl)cc4Cl)n3)C[C@@H]2O)N1 [Example 1.248] | < 100 nM |  |
| C[C@@H](Nc1nc(N2CCN(C(=O)[C@H]3CCC(=O)N3)CC2)ncc1Cl)c1c(F)cc(Cl)cc1Cl [Example 1.250] |  | < 100 nM |
| C[C@H](Nc1nc(N2CCN(C(=O)[C@H]3CCC(=O)N3)CC2)ncc1Cl)c1ncc(Cl)cc1Cl [Example 1.255] | < 100 nM |  |
| Cc1nc(N2CCN(C(=O)[C@H]3CCC(=O)N3)CC2)nc(N[C@H](C)c2c(F)cc(Cl)cc2Cl)c1Cl [Example 1.260] | < 100 nM |  |
| C[C@@H](Nc1nc(N2CCN(C(=O)[C@H]3CCC(=O)N3)CC2)nc(C(F)(F)F)c1Cl)c1ccc(Cl)cc1Cl [Example 1.261] | < 100 nM |  |
